# In patent publication US20140271667A1, “Methods and Compositions for Neoadjuvant Therapy” (The Wistar Institute of Anatomy and Biology, priority 2013, published 2014):
# How the values were obtained:
# [1] = test system: PC3 cells; experiment: Cell death by Trypan blue exclusion; type: cell-based; settings: vs vehicle, Gamitrinib 5 μM, CCCP 12.5 μM, 2-DG 25 mM
# Experimental: (§1) Tumor cells were plated onto 96-well plates at 3.7×10^3/well and treated with vehicle or Gamitrinib (5 μM). After 24 h, cell viability was assessed with a 3 (4,5-dimethyl-thyazoyl-2-yl)2,5 diphenyltetrazolium bromide (MTT) colorimetric assay (24), or, alternatively, by Trypan blue exclusion and light microscopy. Data were background-subtracted relative to vehicle-treated cultures. In some experiments, tumor cell proliferation was assessed by direct cell counting and light microscopy.
# [2] = test system: Focal Adhesion Kinase (FAK); experiment: Western blotting, FAK phosphorylation; type: cell-based, human; settings: tumor cells (PC3); Gamitrinib 5 μM, CCCP 12.5 μM, rapamycin 0.1 μM
# Experimental: (§2) Protein lysates were prepared in RIPA buffer containing 150 mM NaCl, 1.0% Triton X-100, 0.5% sodium deoxycholate, 0.1% SDS, 50 mM Tris, pH 8.0, in the presence of EDTA-free protease inhibitor cocktail (Roche) and phosphatase inhibitor cocktail 2 and 3 (Sigma Aldrich). Equal amounts of protein lysates were separated by SDS gel electrophoresis, transferred to PVDF membranes and incubated with primary antibodies of various specificities. Protein bands were detected by chemiluminescence, as described (21).
# [3] = test system: PC3 cells; experiment: Cell proliferation by direct cell counting; type: cell-based, human; settings: vs vehicle, Gamitrinib 5 μM, CCCP 12.5 μM, 2-DG 25 mM
# Experimental: as §1
# [4] = test system: PC3 cells; experiment: Transwell cell migration; type: cell-based, human; settings: Gamitrinib 5 μM, 17-AAG 5 μM, CCCP 12.5 μM, 2-DG 25 mM, rapamycin 0.1 μM, 6 h
# Experimental: (§3) Various tumor cell types were treated as indicated in each experiment, suspended in 0.1% BSA/DMEM and seeded (1.6−3.2×10^3 cells/mm2, depending on the cell type) in the upper compartment of […] pore diameter BD transwells (BD). NIH3T3 conditioned medium was placed in the lower compartment as a chemoattractant. After 6-18 h incubations at 37° C., the transwell membranes were recovered and cells on the upper side (non-migratory) were wiped off the surface. Cells on the lower side of the membrane were fixed in methanol, rinsed in water and mounted on glass slides with Vectashield medium containing DAPI (Vector Laboratories). Migrated cells on each membrane were counted by fluorescence microscopy in 5 different fields. For cell invasion assays, transwell membranes were coated with Matrigel and processed as described above.
# [5] = test system: PC3 cells; experiment: Matrigel-coated transwell cell invasion; type: cell-based, human; settings: Gamitrinib 5 μM, 17-AAG 5 μM, CCCP 12.5 μM, 2-DG 25 mM, 16 h
# Experimental: as §3
# [6] = test system: AMPK; experiment: Western blotting, AMPK and ACC phosphorylation; type: cell-based, human; settings: PC3; Gamitrinib 5 μM time course, metformin 5 mM 6 h, 17-AAG 5 μM time course
# Experimental: as §2
# [7] = test system: ULK1; experiment: Western blotting, ULK1 phosphorylation and level; type: cell-based, human; settings: for ULK1 phosphorylation on Ser555: Gamitrinib 5 μM (within 1-2 h); for ULK1 phosphorylation on Ser555 / ULK1 phosphorylation on Ser757: metformin 5 mM 6 h, 17-AAG 5 μM; for ULK1 phosphorylation on Ser757: Gamitrinib 5 μM
# Experimental: as §2
# [8] = test system: Raptor; experiment: Western blotting, Raptor phosphorylation; type: cell-based, human; settings: PC3; Gamitrinib 5 μM, metformin 5 mM 6 h, 17-AAG 5 μM
# Experimental: as §2
# [9] = test system: 4EBP1; experiment: Western blotting, 4EBP1 phosphorylation; type: cell-based, human; settings: PC3; rapamycin 0.1 μM
# Experimental: as §2
smiles,measurement,setting,value
"N#CC(C#N)=NNc1cccc(Cl)c1 [CCCP, carbonyl cyanide 3-chlorophenylhydrazone]",cell death by Trypan blue exclusion,[1],did not affect
same,FAK phosphorylation on Tyr397 and Tyr925,[2],abolished FAK phosphorylation
same,tumor cell proliferation,[3],did not affect cell proliferation
same,tumor cell migration,[4],suppressed tumor cell migration
same,tumor cell invasion,[5],suppressed
"O=CC[C@@H](O)[C@H](O)[C@H](O)CO [2-DG, 2-deoxy-D-glucose]",cell death by Trypan blue exclusion,[1],did not affect
same,tumor cell proliferation,[3],did not affect cell proliferation
same,tumor cell migration,[4],suppressed tumor cell migration
same,tumor cell invasion,[5],suppressed
"C=CCNC1=C2C[C@@H](C)C[C@H](OC)[C@H](O)[C@@H](C)/C=C(\C)[C@H](OC(N)=O)[C@@H](OC)/C=C\C=C(/C)C(=O)NC(=CC1=O)C2=O [17-AAG, 17-allylamino demethoxygeldanamycin]",AMPK and ACC phosphorylation,[6],did not affect AMPK or ACC phosphorylation
same,tumor cell migration,[4],did not affect tumor cell migration or invasion
same,ULK1 level after longer exposure,"[7]; 24-h exposure of tumor cells, data not shown",caused ULK1 degradation
same,ULK1 phosphorylation on Ser555,[7]; PC3,equally reduced
same,ULK1 phosphorylation on Ser757,[7]; PC3,equally reduced
same,total level of ULK1,"[7]; PC3, time points of the Western blot experiment",not affected
same,tumor cell invasion,[5],did not affect tumor cell migration or invasion
same,Raptor phosphorylation on Ser792,[8],remained unphosphorylated
"CO[C@H]1C[C@@H]2CC[C@@H](C)[C@@](O)(O2)C(=O)C(=O)N2CCCC[C@H]2C(=O)O[C@H]([C@H](C)C[C@@H]2CC[C@@H](O)[C@H](OC)C2)CC(=O)[C@H](C)/C=C(\C)[C@@H](O)[C@@H](OC)C(=O)[C@H](C)C[C@H](C)/C=C/C=C/C=C/1C [rapamycin, Rapamycin]",4EBP1 phosphorylation,[9],suppressed 4EBP1 phosphorylation
same,FAK phosphorylation on Tyr397 and Tyr925,[2],no effect
same,tumor cell migration,[4],no effect
CN(C)C(=N)N=C(N)N [metformin],AMPK and ACC phosphorylation,[6],activation of AMPK and ACC
same,ULK1 phosphorylation on Ser555,[7]; PC3,increased ULK1 phosphorylation on Ser555
same,ULK1 phosphorylation on Ser757,[7]; PC3,decreased phosphorylation of ULK1 on Ser757
same,Raptor phosphorylation on Ser792,[8],phosphorylation of Raptor on Ser792
